In PubChem BioAssay (NCI):
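A five-concentration, 48-hour dose response in 96-well plates underlies each endpoint, interpolated linearly between surrounding concentrations. Abbreviation: GI50, concentration required for 50% inhibition of growth. The concentration for full growth arrest is given as TGI.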

Experiments:
Experiment in all cases: NCI anticancer screen, dose series, 48 h
SK-MEL-2 melanoma = test system: SK-MEL-2 melanoma
UACC-257 melanoma = test system: UACC-257 melanoma
SF-295 CNS = test system: SF-295 CNS
IGROV1 ovarian = test system: IGROV1 ovarian
M14 melanoma = test system: M14 melanoma
UACC-62 melanoma = test system: UACC-62 melanoma
EKVX NSCLC = test system: EKVX NSCLC
HS 578T breast = test system: HS 578T breast
OVCAR-8 ovarian = test system: OVCAR-8 ovarian
U251 CNS = test system: U251 CNS
CAKI-1 renal = test system: CAKI-1 renal
OVCAR-5 ovarian = test system: OVCAR-5 ovarian
MDA-MB-435 = test system: MDA-MB-435
SK-MEL-5 melanoma = test system: SK-MEL-5 melanoma
SNB-19 CNS = test system: SNB-19 CNS
OVCAR-3 ovarian = test system: OVCAR-3 ovarian
UO-31 renal = test system: UO-31 renal
MOLT-4 leukemia = test system: MOLT-4 leukemia
HOP-62 NSCLC = test system: HOP-62 NSCLC
HOP-92 NSCLC = test system: HOP-92 NSCLC
HCC-2998 colon = test system: HCC-2998 colon
NCI-H226 lung = test system: NCI-H226 lung
MDA-MB-468 breast = test system: MDA-MB-468 breast
SF-268 CNS = test system: SF-268 CNS
RPMI-8226 leukemia = test system: RPMI-8226 leukemia
SK-OV-3 ovarian = test system: SK-OV-3 ovarian
DU-145 prostate = test system: DU-145 prostate
SN12C renal = test system: SN12C renal
HCT-116 colon = test system: HCT-116 colon

COc1ccc2nc(Cl)c(-c3cc(-c4ccccc4)nc(=O)[nH]3)cc2c1
GI50 (SK-MEL-2 melanoma): 18.5 µM | TGI (SK-MEL-2 melanoma): 40.9 µM | GI50 (UACC-257 melanoma): 18.1 µM | TGI (UACC-257 melanoma): 37.6 µM | GI50 (SF-295 CNS): 21.3 µM | TGI (SF-295 CNS): 67.2 µM | GI50 (IGROV1 ovarian): 17.9 µM | TGI (IGROV1 ovarian): 44.1 µM | GI50 (M14 melanoma): 18.5 µM | TGI (M14 melanoma): 46.8 µM | GI50 (UACC-62 melanoma): 13.8 µM | TGI (UACC-62 melanoma): 28.6 µM | GI50 (EKVX NSCLC): 24 µM | TGI (EKVX NSCLC): > 100 µM | GI50 (HS 578T breast): 24.8 µM | TGI (HS 578T breast): > 100 µM | GI50 (OVCAR-8 ovarian): 16.6 µM | TGI (OVCAR-8 ovarian): 88.8 µM | GI50 (U251 CNS): 4.45 µM | TGI (U251 CNS): 19.9 µM | GI50 (CAKI-1 renal): 12 µM | TGI (CAKI-1 renal): 28.9 µM | GI50 (OVCAR-5 ovarian): 18.2 µM | TGI (OVCAR-5 ovarian): 38.1 µM | GI50 (MDA-MB-435): 14.8 µM | TGI (MDA-MB-435): 34.1 µM | GI50 (SK-MEL-5 melanoma): 16.8 µM | TGI (SK-MEL-5 melanoma): 31.5 µM | GI50 (SNB-19 CNS): 10.7 µM | TGI (SNB-19 CNS): 26 µM | GI50 (OVCAR-3 ovarian): 7.42 µM | TGI (OVCAR-3 ovarian): 23.8 µM | GI50 (UO-31 renal): 10.5 µM | TGI (UO-31 renal): 22.4 µM | GI50 (MOLT-4 leukemia): 3.63 µM | TGI (MOLT-4 leukemia): 54.1 µM | GI50 (HOP-62 NSCLC): 14.8 µM | TGI (HOP-62 NSCLC): 34.4 µM | GI50 (HOP-92 NSCLC): 6.8 µM | TGI (HOP-92 NSCLC): 42.5 µM | GI50 (HCC-2998 colon): 16.5 µM | TGI (HCC-2998 colon): 31.8 µM | GI50 (NCI-H226 lung): 12.7 µM | TGI (NCI-H226 lung): 41.7 µM | GI50 (MDA-MB-468 breast): 11.4 µM | TGI (MDA-MB-468 breast): 33.8 µM | GI50 (SF-268 CNS): 14.6 µM | TGI (SF-268 CNS): 35 µM | GI50 (RPMI-8226 leukemia): 3.08 µM | TGI (RPMI-8226 leukemia): 13.5 µM | GI50 (SK-OV-3 ovarian): 20.9 µM | TGI (SK-OV-3 ovarian): 51.2 µM | GI50 (DU-145 prostate): 8.82 µM | TGI (DU-145 prostate): 29.3 µM | GI50 (SN12C renal): 19.4 µM | TGI (SN12C renal): 59 µM | GI50 (HCT-116 colon): 6.67 µM | TGI (HCT-116 colon): 26.2 µM
